Patent US8784824B2, “Compositions and methods for treatment of angiogenesis in pathological lesions” (Philogen S.p.A., priority 2000, dated 2014)
Values belong to the substance of their own block, whether it stands above or below them.

Key:
[1] = in vivo; cited from earlier work
[2] = target: T1, ED-B domain of fibronectin (Homo sapiens, UniProt P02751); experiment: Binding of L19-IFN-γ fusion proteins to ED-B (ELISA, BIAcore)
[3] = system: tumor cells; experiment: Block of tumor cell proliferation by L19-IFN-γ fusion proteins; assay type: cell-based; conditions: typical IFN-γ-dependent fashion
[4] = target: T1, ED-B domain of fibronectin; experiment: Antigen binding assays of scFv(L19)-TF (ELISA, BIAcore, antigen column)
Method: The immunoreactivity of the scFv-TF fusion protein was analyzed by ELISA immunoassay, by BIAcore and by affinity chromatography on antigen column, as described (Neri et al., 1996; D. Neri et al. (1997) Nature Biotechnology, 15, 1271-1275.; Tarli et al., 1999).

[5] = system: FXa; experiment: Enzymatic activity of TF moiety, Spectrozyme FXa assay; assay type: biochemical; conditions: method of Ruf et al
Method: The enzymatic activity of the scFv-TF fusion protein was analyzed using the Spectrozyme FXa assay (American Diagnostica, Pfungstadt, Germany) as described by Ruf et al (1991).

[6] = system: F9 murine teratocarcinoma; experiment: In vivo treatment with scFv-TF fusion protein, F9 tumors; parameters: species or system mouse; conditions: small F9 tumors; three injections of 20 μg (FIG. 4)
Method: (§1) Tumor bearing mice were obtained by subcutaneous injection of 10^6 of FE8 rat fibroblast, C51 colon carcinoma or F9 teratocarcinoma cells (Tarli et al., 1999). The cells were allowed to grow until the tumoral volume could be measured by a slide-calliper.
(§2) Mice with tumors of volume ca 200-300 mm^3 were injected with 20 ug scFv-TF fusion protein corresponding to 10 ug TF in 200 ul saline. The injection was repeated after 48 and 96 hours. Mice were monitored by tumor volume, weight and appearance including photographic documentation.

[7] = system: C51 murine carcinoma; experiment: In vivo treatment with scFv-TF fusion protein, C51 tumors; parameters: species or system mouse
Method: as §1, §2
(§3) Mice with tumors of volume ca 1500 mm^3 were injected with a single dose of with 20 ug scFv-TF fusion protein corresponding to 10 ug TF in 200 ul saline. The injection was not repeated. Mice were monitored by tumor volume, weight and appearance including photographic documentation.

[8] = system: FE8 tumors (ras-transformed rat fibroblasts); experiment: In vivo treatment with scFv-TF fusion protein, FE8 tumors; parameters: species or system mouse; conditions: large FE8 tumors; one injection of 20 μg (FIG. 7)
Method: as §1, §3

[9] = system: F9 murine teratocarcinoma, C51 murine carcinoma or FE8 tumors; experiment: Tumor infarction after scFv-TF injection in tumor bearing mice; assay type: in vivo, mouse; conditions: few hours after injection
Method: The antitumor activity of scFv(L19)-TF and scFv(D1.3)-TF was tested in mice bearing the F9 murine teratocarcinoma, the C51 murine carcinoma or FE8 tumors (derived from subcutaneously implanted ras-transformed rat fibroblasts). Experiments were performed both in mice bearing small tumors and in mice bearing very large tumors.
as §1

[10] = system: subcutaneously implanted F9 murine teratocarcinoma; experiment: Biodistribution of radioiodinated scFv(L19)-TF; assay type: in vivo, mouse; conditions: injected intravenously, quantitative biodistribution (FIG. 3)
Method: The in vivo targeting performance was analysed by biodistribution analysis as described in Tarli et al. (1999). Briefly, purified scFv(L19)-TF fusion protein was radioiodinated and injected into nude mice with subcutaneously implanted F9 murine teratocarcinoma. Mice were sacrificed at 24 hours after injection. The organs were weighed and the radioactivity counted. Targeting results of representative organs are expressed as percent of the injected dose per gram of tissue (% ID/g).

T1 sequence (P02751 1271-1359 limits assumed): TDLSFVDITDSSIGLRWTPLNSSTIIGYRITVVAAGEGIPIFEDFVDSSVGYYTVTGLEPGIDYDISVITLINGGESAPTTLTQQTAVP

Substance: TNFα
- plasma half-life [1]: less than 30 minutes

- binding to the ED-B domain of fibronectin [2]: strong binding
Substance: scFv(L19)-(IFN-γ)2: IFN-γ homodimer (two IFN-γ joined by a polypeptide linker) fused at the C-terminal extremity of scFv(L19)
- block of proliferation of tumor cells [3]: block the proliferation of tumor cells

- binding to the ED-B domain of fibronectin [2]: bind with high-affinity
Substance: scFv(L19)-IFN-γ: IFN-γ monomer fused at the C-terminal extremity of scFv(L19)
- block of proliferation of tumor cells [3]: block the proliferation of tumor cells

- activity of the antibody moiety [4]: active
Substance: scFv(L19)-TF: scFv(L19) specific for ED-B domain of fibronectin genetically fused to truncated tissue factor
- activity of the TF moiety [5]: active
- reduction of growth rate [6]: approx. 50%
- antitumor effect on tumor growth ([7]; large C51 tumors, one injection of 20 μg (FIG. 6)): stopped tumor growth
- reduction of growth rate ([7]; small C51 tumors, three injections of 20 μg (FIG. 5)): approx. 50%
- antitumor effect on tumor growth [8]: stopped tumor growth
- tumor infarction [9]: rapid and extensive tumor infarction
- ability to target solid tumors [10]: target solid tumors
